In US9056104B2, “Dynamic inhibitors of heat shock protein 90” (THE UNIVERSITY OF KANSAS, priority 2011, dated 2015):
Read-outs that look alike come from different tables or passages of the source.

Key:
[1] = tested on: SKBr3 (estrogen receptor negative, Her2 over-expressing breast cancer cells); experiment: Anti-proliferative activity against SKBr3 cells; format: cell-based; details: for IC50: mean ± SD
Experimental: (§1) Once synthesized, the library of coumermycin A1 analogs containing the olefinic and saturated linkers, were evaluated for anti-proliferative activity against SKBr3 (estrogen receptor negative, Her2 over-expressing breast cancer cells), MCF-7 (estrogen receptor positive breast cancer cells), A549 (human lung adenocarcinoma epithelial), HT29 (Human colon adenocarcinoma grade II), and PC3mm2 (androgen receptor insensitive prostate cancer) cell lines. […] As shown, X is at the 6 position and Y is at the 8 position.

[2] = tested on: MCF-7 (estrogen receptor positive breast cancer cells); experiment: Anti-proliferative activity against MCF-7 cells; format: cell-based; details: mean ± SD
Experimental: as §1

[3] = tested on: A549 (human lung adenocarcinoma epithelial); experiment: Anti-proliferative activity against A549 cells; format: cell-based
Experimental: as §1, with “lines. The activities produced provide insight into the optimal distance between binding sites and provide rationale for subsequent analog design.” for “lines.”

[4] = tested on: PC3mm2 (androgen receptor insensitive prostate cancer); experiment: Anti-proliferative activity against PC3mm2 cells; format: cell-based
Experimental: as §1, with “lines. The activities produced provide insight into the optimal distance between binding sites and provide rationale for subsequent analog design.” for “lines.”

[5] = tested on: HT29 (Human colon adenocarcinoma grade II); experiment: Anti-proliferative activity against HT29 cells; format: cell-based
Experimental: as §1, with “lines. The activities produced provide insight into the optimal distance between binding sites and provide rationale for subsequent analog design.” for “lines.”

[6] = tested on: HSP90-dependent client proteins (Her-2, Raf, Akt); experiment: Western blot analyses of HSP90 client protein degradation in MCF-7 breast cancer cells; format: cell-based; details: MCF-7 lysates, 24 hour treatment, 5x and 1/2 of antiproliferative IC50; actin control
Experimental: Since actin is not dependent on HSP90 for its maturation, actin levels should remain constant after treatment with an HSP90 inhibitor and is therefore used as a control. […] L represents a concentration ½ of the anti-proliferative IC50 value while H represents a concentration 5 times greater than the anti-proliferative IC50 value. GDA (500 nM) represents a positive control, while DMSO (0), vehicle, serves as the negative control. […]

[7] = tested on: SKBr3, MCF-7, A549, HT29 and PC3mm2 cell lines; experiment: Anti-proliferative activity, cell lines not specified; format: cell-based; details: versus Compounds 65-70
Experimental: as §1, with “lines. The activities produced provide insight into the optimal distance between binding sites and provide rationale for subsequent analog design.” for “lines.”

[8] = tested on: cancer cells; details: cited from earlier work; for IC50: previously found, background, read-out: IC50 against cancer cells (anti-proliferative activity)
[9] = Table 2, read-out: Anti-Proliferation Activities of non-Noviosylated Olefin Dimers, SKBr3
[10] = Table 2, read-out: Anti-Proliferation Activities of non-Noviosylated Olefin Dimers, MCF7
[11] = Table 2, read-out: Anti-Proliferation Activities of non-Noviosylated Olefin Dimers, A549
[12] = Table 2, read-out: Anti-Proliferation Activities of non-Noviosylated Olefin Dimers, PC3mm2
[13] = Table 3, read-out: Anti-Proliferation Activities of Saturated Linker Dimers, SKBr3
[14] = Table 3, read-out: Anti-Proliferation Activities of Saturated Linker Dimers, MCF-7
[15] = Table 3, read-out: Anti-Proliferation Activities of Saturated Linker Dimers, A549
[16] = Table 3, read-out: Anti-Proliferation Activities of Saturated Linker Dimers, PC3mm2
[17] = Table 3, read-out: Anti-Proliferation Activities of Saturated Linker Dimers, HT29
[18] = Table 4, read-out: Anti-Proliferation Activities of Biaryl Dimers, SKBr3
[19] = Table 4, read-out: Anti-Proliferation Activities of Biaryl Dimers, MCF-7

SMILES: Cc1c(OC2CCN(C)CC2)ccc2cc(NC(=O)CCCC/C=C/CCCCC(=O)Nc3cc4ccc(OC5CCN(C)CC5)c(C)c4oc3=O)c(=O)oc12 [Compound 35]
- IC50 [1, 9]: 0.51 ± 0.06 µM
- IC50 [2, 10]: 0.73 ± 0.1 µM

SMILES: Cc1c(OCCCN(C)C)ccc2cc(NC(=O)C/C=C/CC(=O)Nc3cc4ccc(OCCCN(C)C)c(C)c4oc3=O)c(=O)oc12 [Compound 36]
- IC50 [3, 11]: 19.4 µM
- IC50 [4, 12]: 15.2 µM
- IC50 ([5]; Table 2, read-out: Anti-Proliferation Activities of non-Noviosylated Olefin Dimers, HT29): 12.2 µM
- IC50 [1, 9]: 0.46 ± 0.02 µM
- degradation of HSP90 client proteins (Her-2, Raf, Akt), Western blot [6]: no activity against HSP90 client proteins
- IC50 [2, 10]: 0.84 µM

SMILES: Cc1c(OC2CCN(C)CC2)ccc2cc(NC(=O)CC/C=C\CCC(=O)Nc3cc4ccc(OC5CCN(C)CC5)c(C)c4oc3=O)c(=O)oc12 [Compound 38]
- IC50 [3, 11]: 77.6 µM
- IC50 [4, 12]: 32.9 µM
- IC50 [1, 9]: > 100 µM
- IC50 [2, 10]: 49.9 ± 2.6 µM

SMILES: Cc1c(OC2CCN(C)CC2)ccc2cc(NC(=O)CCCCC(=O)Nc3cc4ccc(OC5CCN(C)CC5)c(C)c4oc3=O)c(=O)oc12 [Compound 42]
- IC50 [1, 13]: 1.26 ± 0.2 µM
- IC50 [2, 14]: 2.46 ± 0.4 µM

SMILES: Cc1c(OC2CCN(C)CC2)ccc2cc(NC(=O)CCCCCCC(=O)Nc3cc4ccc(OC5CCN(C)CC5)c(C)c4oc3=O)c(=O)oc12 [Compound 43]
- IC50 [3, 15]: 30.4 µM
- IC50 [4, 16]: 13.8 µM
- IC50 [5, 17]: 26.3 µM
- IC50 [1, 13]: 1.19 ± 0.3 µM
- IC50 [2, 14]: 2.82 ± 0.3 µM

SMILES: Cc1c(OC2CCN(C)CC2)ccc2cc(NC(=O)CCCCCCCCC(=O)Nc3cc4ccc(OC5CCN(C)CC5)c(C)c4oc3=O)c(=O)oc12 [Compound 44]
- IC50 [3, 15]: 13.2 µM
- IC50 [4, 16]: 10.2 µM
- IC50 [5, 17]: 3.9 µM
- IC50 [1, 13]: 2.84 ± 0.1 µM
- IC50 [2, 14]: 3.68 ± 0.4 µM

SMILES: COC1C(O)C(O)C(Oc2ccc3cc(NC(=O)c4cccc(-c5cccc(C(=O)Nc6cc7ccc(OC8OC(C)(C)C(OC)C(O)C8O)c(C)c7oc6=O)c5)c4)c(=O)oc3c2C)OC1(C)C (stereo not drawn) [Compound 65]
- IC50 [1, 18]: 0.86 ± 0.14 µM
- IC50 [2, 19]: 1.26 ± 0.17 µM

SMILES: COc1cc(C(=O)Nc2cc3ccc(OC4OC(C)(C)C(OC)C(O)C4O)c(C)c3oc2=O)cc(-c2cc(C(=O)Nc3cc4ccc(OC5OC(C)(C)C(OC)C(O)C5O)c(C)c4oc3=O)ccc2OC)c1 (stereo not drawn) [Compound 67]
- IC50 [1, 18]: 28.5 ± 4.4 µM
- IC50 [2, 19]: 38 ± 1.5 µM

SMILES: COc1cc(C(=O)Nc2cc3ccc(OC4OC(C)(C)C(OC)C(O)C4O)c(C)c3oc2=O)cc(-c2cc(OC)cc(C(=O)Nc3cc4ccc(OC5OC(C)(C)C(OC)C(O)C5O)c(C)c4oc3=O)c2)c1 (stereo not drawn) [Compound 68]
- IC50 ([3]; Table 4, read-out: Anti-Proliferation Activities of Biaryl Dimers, A549): 28.9 µM
- IC50 ([4]; Table 4, read-out: Anti-Proliferation Activities of Biaryl Dimers, PC3mm2): 12.5 µM
- IC50 ([5]; Table 4, read-out: Anti-Proliferation Activities of Biaryl Dimers, HT29): 11.7 µM
- IC50 [1, 18]: 1.95 ± 0.4 µM
- IC50 [2, 19]: 1.85 ± 0.52 µM

SMILES: COc1ccc(C(=O)Nc2cc3cc(OC)c(OC4OC(C)(C)C(OC)C(O)C4O)c(C)c3oc2=O)cc1-c1cc(C(=O)Nc2cc3cc(OC)c(OC4OC(C)(C)C(OC)C(O)C4O)c(C)c3oc2=O)ccc1OC (stereo not drawn) [Compound 69]
- IC50 [1, 18]: 0.11 ± 0.05 µM
- fold more active on SkBr3 cell lines than corresponding 8-Me and 8-OMe coumarin analogs (Compounds 66 and 68) ([1]; versus Compounds 66 and 68): 7-8 fold
- IC50 [2, 19]: 0.72 ± 0.21 µM

SMILES: COc1ccc(C(=O)Nc2cc3ccc(OC(C)=O)c(C)c3oc2=O)cc1-c1cc(C(=O)Nc2cc3ccc(OC(C)=O)c(C)c3oc2=O)ccc1OC [Compound 73]
- IC50 ([1]; Table 5, read-out: Anti-Proliferation Activities Non-Noviosylated Biaryl Dimers, SKBr3): 11.8 ± 0.8 µM
- IC50 ([2]; Table 5, read-out: Anti-Proliferation Activities Non-Noviosylated Biaryl Dimers, MCF-7): > 100 µM
- fold less active than the corresponding noviosylated coumarin-containing analogs (Compounds 65-70) [7]: ~10 fold

SMILES: CO[C@H]1[C@H](OC(=O)c2ccc(C)[nH]2)[C@H](O)[C@@H](Oc2ccc3c(O)c(NC(=O)c4c[nH]c(C(=O)Nc5c(O)c6ccc(O[C@H]7OC(C)(C)[C@@H](OC)[C@H](OC(=O)c8ccc(C)[nH]8)[C@@H]7O)c(C)c6oc5=O)c4C)c(=O)oc3c2C)OC1(C)C [coumermycin A1]
- IC50 [8]: 70 µM
- fold increase in anti-proliferative activity over novobiocin ([8]; relative to novobiocin): 10 fold

SMILES: CO[C@@H]1[C@@H](OC(N)=O)[C@@H](O)[C@H](Oc2ccc3c(O)c(NC(=O)c4ccc(O)c(CC=C(C)C)c4)c(=O)oc3c2C)OC1(C)C [novobiocin]
- IC50 [8]: ~700 µM
